Experimental findings from patent US12403116B2, “Hydroxypentyl benzoic acid diester compound, and preparation method and pharmaceutical application thereof” (CHINESE ACADEMY OF MEDICAL SCIENCES INSTITUTE OF MEDICINAL …, priority 2022, dated 2025) are described below.

What all share (assay type): in vivo, rat
The test system of assay [1] is MCAO/R model rats. Briefly: Neurological function evaluation (Longa 5-level score) in MCAO/R model rats. The following applies: for neurological function scores: 24 hours of reperfusion, Longa score; for neurological function scores compared with the NBP group / efficiency (vs NBP group): NBP 5 mg/kg; for neurological function scores compared with the NBP group: result in words; for efficiency (vs L-NBP group): L-NBP 2.5 mg/kg. How it is done: (§1) • SHAM group: sham surgery group • Middle cerebral artery occlusion (MCAO) model group • Butylphthalide (NBP): 5 mg/kg • Levobutylphthalide (L-NBP): 2.5 mg/kg • NRB (Compound 1): 15 mg/kg (equivalent to a dose of 4.9 mg/kg of NBP through conversion) • Low dose of L-NRB (compound 2): 7.5 mg/kg (equivalent to a dose of 2.45 mg/kg of L-NBP through conversion) • High dose of L-NRB (compound 2): 15 mg/kg (equivalent to a dose of 4.9 mg/kg of L-NBP through conversion) • Aspirin group (ASP): 10 mg/kg 2. Administration Method
(§2) The rats in the sham surgery group and the MCAO model group were administered the same amount of normal saline by intraperitoneal administration for 5 consecutive days before modeling, and then the MCAO operation was performed.
(§3) The middle cerebral artery occlusion (MCAO) model was made by thread-occlusion method. The operation process was strictly conducted in aseptic mode. The main operation process was as follows: the rat was anesthetized by intraperitoneal injection of chloral hydrate, the common carotid artery (CCA), external carotid artery (ECA) and internal carotid artery (ICA) were separated, the common carotid artery was clamped with a microarterial clamp, and the branches of the external carotid artery were electrocoagulated with a bipolar electrocoagulation pen. The main trunk of the external carotid artery was separated and ligated at a distance of 3-4 mm from the bifurcation of the common carotid artery. The internal carotid artery was temporarily clamped with a micro artery clamp. A small incision into the external carotid artery was cut with an ophthalmic scissors, and a 4-0 monofilament nylon thread coated with methylpolysiloxane was inserted. A loose knot was made at the incision of the external carotid artery to block the blood reflux of the internal carotid artery. The micro artery clamp of the internal carotid artery was removed, and the nylon thread is gently pushed into the internal carotid artery to reach the anterior cerebral artery in the skull, to block the opening of the middle cerebral artery (MCA), and the insert depth is approximately 18-22 mm. The microarterial clamp of the common carotid artery was removed, the subcutaneous tissue and skin were sutured layer by layer after disinfection, and the nylon thread was slowly draw out at 2 hours after operation, and the reperfusion was conducted. In the sham surgery group, all operations were the same except that nylon thread was not inserted. The rectal temperature of all rats was maintained at 37° C. throughout the entire experimental process.
After 24 hours of reperfusion, all rats were evaluated for neurobehavioral scores using the Longa 5-level scoring method. Longa scoring standard: 0, normal, without neurological impairment; 1, left forelimb extension disorder, weakened function; 2, circling to the left, paralysis of the left forelimb and severe impairment of function, and the rat keeps twisting towards the damaged area after lifting the rat's tail; 3, when walking, tilt to the left; 4, limb paralysis, unconscious consciousness.

The test system of assay [2] is MCAO/R model rats. Nature of the assay: Cerebral infarction area (TTC staining) in MCAO/R model rats. The following applies: for infarction area (%): 24 hours of reperfusion, TTC staining; for efficiency (vs L-NBP model group): L-NBP 2.5 mg/kg; for efficiency (vs NBP model group) / cerebral infarction area compared with the NBP group: NBP 5 mg/kg; for cerebral infarction area compared with the NBP group: result in words. The procedure: as §1, §2, §3
After 24 hours of reperfusion, the cerebral infarction area was measured using tetrazolium red (TTC) staining. The rats were killed by cutting the neck, and the whole brain was quickly taken out. After being placed in the refrigerator at −20° C. for a short time and placed on the ice plate, and the olfactory bulb was removed. The forebrain was cut into six slices with a thickness of 2 mm along the coronal plane. The brain slices were placed in 1.5 mL of 2% TTC solution and incubated in dark for 30 minutes. Then the brain slices were fixed in 10% paraformaldehyde overnight, and then photographed for analysis. Use Image-J software to measure and calculate the volume of cerebral infarction.

In assay [3] the test system is rats with middle cerebral artery occlusion (MCAO) model. Nature of the assay: Pre-experiments: reduction of cerebral infarction area in MCAO model rats. As to conditions: result in words; C compared with B, D compared among 1:2 conjugates. An excerpt: Based on the effects of both butylphthalide and dexborneol on improving cerebral circulation and protecting cardio cerebral vessels, the inventor team of this application adopted progressive pre-experiments. First, butylphthalide and dexborneol were simply combined in a molar ratio 1:1 to form a composition.

[4] abbreviates: neurological function score, dose 7.5 mg/kg.
Setting [5] is: neurological function score, dose 15 mg/kg.
The mark [6] stands for this setting: cerebral infarction area, dose 7.5 mg/kg.
The mark [7] stands for this setting: cerebral infarction area, dose 15 mg/kg.
Where [8] appears, read: neurological function score, dose 2.5 mg/kg.

In turn, `CCCCC1OC(=O)c2ccccc21` (racemic) [NBP, (R/S)-3-n-butyl-1(3H)-isobenzofuranone, reference compound] displayed a neurological function scores in the assay with MCAO/R model rats [1] (dose 5 mg/kg) of 2.3 ± 1.0. Also, the “inhibition rate (vs model group)” value in the assay on MCAO/R model rats [1] (neurological function score, dose 5 mg/kg) stood at 32.4%. For the same compound, in the assay on MCAO/R model rats [2] (dose 5 mg/kg), the “infarction inhibition rate (vs model group)” value came out at 34.2% and the “infarction area (%)” value is 19.4 ± 7.0 %.

On to `CCCC[C@H](OC(=O)CCC(=O)OC1CC2CCC1(C)C2(C)C)c1ccccc1C(=O)OC1CC2CCC1(C)C2(C)C` (stereo in doubt) [L-NRB], for which the neurological function scores in the assay on MCAO/R model rats [1] (dose 7.5 mg/kg) is recorded as 1.4 ± 0.7**$. Moreover, in the assay with MCAO/R model rats [1] (dose 7.5 mg/kg, p<0.05), the “neurological function scores compared with the NBP group” value is reported as “significant reductions”. In addition, in the assay with MCAO/R model rats [1] (dose 15 mg/kg), the neurological function scores was 1.1 ± 0.4**$$& and the “neurological function scores compared with the NBP group” value is given as “significant reductions”. Besides, in the assay with MCAO/R model rats [1] (setting [4]), the “inhibition rate (vs model group)” value came out at 58.8%, the “efficiency (vs L-NBP group)” value amounted to 22.2% and the “efficiency (vs NBP group)” value worked out at 39.1%. In the assay on MCAO/R model rats [1] (setting [5]), the “inhibition rate (vs model group)” value was 67.6%, the “efficiency (vs L-NBP group)” value was determined as 38.9% and the “efficiency (vs NBP group)” value is listed as 52.2%. In addition, the “efficiency (vs ASP group)” value in the assay with MCAO/R model rats [1] (neurological function score, dose 15 mg/kg, ASP 10 mg/kg) was found to be 31.3%. In the assay on MCAO/R model rats [2] (setting [6]), the “efficiency (vs L-NBP model group)” value was 29.1% and the “efficiency (vs NBP model group)” value turned out to be 42.3%. For the same compound, the “Efficiency (vs ASP model group)” value in the assay with MCAO/R model rats [2] (cerebral infarction area, dose 15 mg/kg, ASP 10 mg/kg) worked out at 56.6%. Also, in the assay with MCAO/R model rats [2] (setting [7]), the “efficiency (vs L-NBP model group)” value is recorded as 58.2% and the “efficiency (vs NBP model group)” value turned out to be 66.0%. In the assay on MCAO/R model rats [2] (dose 7.5 mg/kg), the “infarction inhibition rate (vs model group)” value is listed as 62.0% and the “infarction area (%)” value was 11.2 ± 4.4**$ %. Further, the “cerebral infarction area compared with the NBP group” value in the assay on MCAO/R model rats [2] (dose 7.5 mg/kg, p<0.05) is “significant reductions”. In the assay with MCAO/R model rats [2] (dose 15 mg/kg), the “infarction inhibition rate (vs model group)” value is recorded as 77.6%, the “infarction area (%)” value is on record as 6.6 ± 3.5**$$&& % and the “cerebral infarction area compared with the NBP group” value is reported as “significant reductions”.

On to `CC(=O)Oc1ccccc1C(=O)O` [ASP, Aspirin, reference compound], for which the neurological function scores with MCAO/R model rats [1] (dose 10 mg/kg) was found to be 1.6 ± 0.5. In addition, in the assay with MCAO/R model rats [1] (neurological function score, dose 10 mg/kg), the “inhibition rate (vs model group)” value came out at 52.9%. In addition, in the assay with MCAO/R model rats [2] (dose 10 mg/kg), the “infarction inhibition rate (vs model group)” value came out at 48.5% and the “infarction area (%)” value is recorded as 15.2 ± 7.0 %.

Compound `CCCC[C@@H]1OC(=O)c2ccccc21` [L-NBP, Levobutylphthalide, reference compound] registered a neurological function scores in the assay with MCAO/R model rats [1] (dose 2.5 mg/kg) of 1.8 ± 0.6. For the same compound, in the assay with MCAO/R model rats [1] (setting [8]), the “inhibition rate (vs model group)” value came to 47.1% and the “efficiency (vs NBP group)” value is recorded as 21.7%. Besides, the “efficiency (vs NBP model group)” value in the assay with MCAO/R model rats [2] (cerebral infarction area, dose 2.5 mg/kg) was 18.6%. In the assay on MCAO/R model rats [2] (dose 2.5 mg/kg), the “infarction inhibition rate (vs model group)” value stood at 46.4% and the “infarction area (%)” value came out at 15.8 ± 6.7 %.

For the compound `CCCCC(OC(=O)CCC(=O)O[C@@H]1C[C@@H]2CC[C@@]1(C)C2(C)C)c1ccccc1C(=O)O[C@@H]1C[C@@H]2CC[C@@]1(C)C2(C)C` (some centres unmarked) [NRB], in the assay with MCAO/R model rats [1] (dose 15 mg/kg), the neurological function scores is reported as 1.3 ± 0.5**$ and the “neurological function scores compared with the NBP group” value was “significant reductions”. In the assay with MCAO/R model rats [1] (setting [5]), the “inhibition rate (vs model group)” value was found to be 61.8% and the “efficiency (vs NBP group)” value is 43.5%. Moreover, the “efficiency (vs NBP model group)” value in the assay with MCAO/R model rats [2] (setting [7]) is reported as 44.8%. In the assay on MCAO/R model rats [2] (dose 15 mg/kg), the “infarction inhibition rate (vs model group)” value was determined as 63.7%, the “infarction area (%)” value was 10.7 ± 7.9**$ % and the “cerebral infarction area compared with the NBP group” value is listed as “significant reductions”.

For the compound `CCCCC(OC(C)=O)c1ccccc1C(=O)O[C@@H]1C[C@@H]2CC[C@@]1(C)C2(C)C` (some centres unmarked) [formula B], in assay [3], the “activity (pre-experiments, comparison between conjugates)” value (from here on “activity”) was “only slightly improved”.

As to `CCCCC(OC(=O)CCC(=O)O[C@@H]1C[C@@H]2CC[C@@]1(C)C2(C)C)c1ccccc1C(=O)O[C@@H]1C[C@@H]2CC[C@@]1(C)C2(C)C` (some centres unmarked) [formula C], in assay [3], the “activity” value is listed as “significantly better”.

Take `CCCC[C@H](OC(=O)CCC(=O)O[C@@H]1C[C@@H]2CC[C@@]1(C)C2(C)C)c1ccccc1C(=O)O[C@@H]1C[C@@H]2CC[C@@]1(C)C2(C)C` [formula D]: in assay [3], the “activity” value is listed as “superior”.
